In ChEMBL document CHEMBL1201862, “PubChem BioAssay data set” (2004):
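Test compounds were applied to cells in 96-well plates for 48 hours at 5 doses. GI50 is the concentration that inhibits growth by half.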 Active and inactive are the calls of the source. No stated cut-off is given here; in the data, active = GI50 up to about 1.1 µM and inactive = higher.

What was measured:
Assay in all cases: NCI-60 cell line screen, 48 h
COLO 205 = system: COLO 205
LOX IMVI = system: LOX IMVI
SF-295 = system: SF-295
RPMI-8226 = system: RPMI-8226
SNB-75 = system: SNB-75
SK-MEL-5 = system: SK-MEL-5
786-0 = system: 786-0
U-251 = system: U-251
ACHN = system: ACHN
SN12C = system: SN12C
UO-31 = system: UO-31
OVCAR-3 = system: OVCAR-3
T47D = system: T47D
RXF 393 = system: RXF 393
MOLT-4 = system: MOLT-4
MDA-MB-231 = system: MDA-MB-231
EKVX = system: EKVX
OVCAR-5 = system: OVCAR-5
HT-29 = system: HT-29
SK-OV-3 = system: SK-OV-3
MDA-MB-435 = system: MDA-MB-435
PC-3 = system: PC-3
TK-10 = system: TK-10
SK-MEL-28 = system: SK-MEL-28
SNB-19 = system: SNB-19
IGROV-1 = system: IGROV-1
KM12 = system: KM12
HCT-15 = system: HCT-15
A549 = system: A549
MDA-N = system: MDA-N
UACC-257 = system: UACC-257
MCF7 = system: MCF7
HCT-116 = system: HCT-116
NCI-H522 = system: NCI-H522
Hs-578T = system: Hs-578T
NCI-H460 = system: NCI-H460
Malme-3M = system: Malme-3M
CCRF-CEM = system: CCRF-CEM
UACC-62 = system: UACC-62
DU-145 = system: DU-145
OVCAR-4 = system: OVCAR-4
OVCAR-8 = system: OVCAR-8
M14 = system: M14
K562 = system: K562
HOP-62 = system: HOP-62
SF-268 = system: SF-268
NCI-H226 = system: NCI-H226
NCI/ADR-RES = system: NCI/ADR-RES
BT-549 = system: BT-549
SR = system: SR
CAKI-1 = system: CAKI-1
HL-60 = system: HL-60
NCI-H23 = system: NCI-H23

## O=c1[nH]c(=O)n(C2CC(O)C(CO)O2)cc1Oc1ccccc1 (stereo not drawn)
COLO 205
  GI50: > 100 µM (inactive)
LOX IMVI
  GI50: > 100 µM (inactive)
SF-295
  GI50: 47.4 µM (inactive)
RPMI-8226
  GI50: > 100 µM (inactive)
SNB-75
  GI50: > 100 µM (inactive)
SK-MEL-5
  GI50: > 100 µM (inactive)
786-0
  GI50: > 100 µM (inactive)
U-251
  GI50: > 100 µM (inactive)
ACHN
  GI50: > 100 µM (inactive)
SN12C
  GI50: > 100 µM (inactive)
UO-31
  GI50: > 100 µM (inactive)
OVCAR-3
  GI50: > 100 µM (inactive)
T47D
  GI50: > 100 µM (inactive)
RXF 393
  GI50: > 100 µM (inactive)
MOLT-4
  GI50: > 100 µM (inactive)
MDA-MB-231
  GI50: > 100 µM (inactive)
EKVX
  GI50: > 100 µM (inactive)
OVCAR-5
  GI50: > 100 µM (inactive)
HT-29
  GI50: > 100 µM (inactive)
SK-OV-3
  GI50: > 100 µM (inactive)
MDA-MB-435
  GI50: > 100 µM (inactive)
PC-3
  GI50: > 100 µM (inactive)
TK-10
  GI50: > 100 µM (inactive)
SK-MEL-28
  GI50: > 100 µM (inactive)
SNB-19
  GI50: > 100 µM (inactive)
IGROV-1
  GI50: > 100 µM (inactive)
KM12
  GI50: > 100 µM (inactive)
HCT-15
  GI50: > 100 µM
A549
  GI50: > 100 µM (inactive)
MDA-N
  GI50: > 100 µM (inactive)
UACC-257
  GI50: > 100 µM (inactive)
MCF7
  GI50: > 100 µM (inactive)
HCT-116
  GI50: > 100 µM (inactive)
NCI-H522
  GI50: > 100 µM (inactive)
Hs-578T
  GI50: > 100 µM (inactive)
NCI-H460
  GI50: > 100 µM (inactive)
Malme-3M
  GI50: > 100 µM (inactive)
CCRF-CEM
  GI50: > 100 µM (inactive)
UACC-62
  GI50: > 100 µM (inactive)
DU-145
  GI50: > 100 µM (inactive)
OVCAR-4
  GI50: > 100 µM (inactive)
OVCAR-8
  GI50: > 100 µM (inactive)
M14
  GI50: > 100 µM (inactive)
K562
  GI50: > 100 µM (inactive)
HOP-62
  GI50: > 100 µM (inactive)
SF-268
  GI50: > 100 µM (inactive)
NCI-H226
  GI50: > 100 µM (inactive)
NCI/ADR-RES
  GI50: > 100 µM (inactive)
BT-549
  GI50: > 100 µM (inactive)
SR
  GI50: > 100 µM (inactive)
CAKI-1
  GI50: > 100 µM (inactive)
HL-60
  GI50: > 100 µM (inactive)
NCI-H23
  GI50: > 100 µM (inactive)
